Test results as given in patent US11000537B2, “Composition comprising novel ginsenoside” (AMOREPACIFIC CORPORATION, priority 2018, dated 2021).

How the values were obtained:
Format in all cases: cell-based
[1] = tested on: SREBP1a; test: SREBP1a gene expression in HepG2 (qPCR); settings: 10 μM, 24 hours, FIG. 30
Description: The hepatocyte cell line HepG2 purchased from the International Center for Biological Resources (ATCC) were placed in Dulbecco's Modified Eagle's Medium (Sigma) to which 10% fetal bovine serum (Hyclone) and 1% penicillin/streptomycin (Sigma) were added, and cultured in a 5% CO2 incubator. As a positive control, Simvastatin (Sigma Aldrich; St. Louis, Mo.), which is known as a lipid lowering agent of the HMG-CoA reductase inhibitor family and reduces cholesterol production in the blood, was used. For the experiment, seven types of ginsenoside (GS #01-GS #06, GS #10; 10 μM each) extracted from Ginseng seeds were treated for 24 hours, and the cells were collected. RNA was extracted using Trizol™ reagent (Thermo Fisher Scientific) and cDNA was synthesized using RevertAid™ 1st strand cDNA synthesis kit (Thermo Fisher Scientific). Bio-Rad's CFX96 real-time quantitative PCR (qPCR) instrument was used to observe the expression of HMG-CoA (3-hydroxy-3-methyl-glutaryl-coenzyme A) reductase, a key gene for cholesterol synthesis. In the same way, LDL (low-density lipoprotein) was absorbed into cells, and the expression of LDL receptor (LDLR), which serves to lower blood cholesterol levels, was observed.
LDLR is controlled by the SREBP1a gene. […]

[2] = tested on: ACC (acetyl-CoA carboxylase); test: ACC gene expression in HepG2 (qPCR); settings: 24 hours
Description: The hepatocyte cell line HepG2 purchased from the International Center for Biological Resources (ATCC) were placed in Dulbecco's Modified Eagle's Medium (Sigma) to which 10% fetal bovine serum (Hyclone) and 1% penicillin/streptomycin (Sigma) were added, and cultured in a 5% CO2 incubator. As a positive control, fenofibrate (FF, Sigma), which is used as an antihyperlipidemic drug, was used, and 7 kinds of ginsenosides (GS #01-GS #06, GS #10; 10 μM each) extracted from Ginseng seed were used for the experiment. After 24 hours of treatment, cells were collected, RNA was extracted using Trizol™ reagent (Thermo Fisher Scientific), and cDNA was synthesized using RevertAid™ 1st strand cDNA synthesis kit (Thermo Fisher Scientific). Bio-Rad's CFX96 real-time quantitative PCR (qPCR) instrument was used to observe the expression of the genes SREBP1c (sterol-regulatory element binding protein 1c), ACC (acetyl-CoA carboxylase) and FAS (Fatty acid synthase), which induces fat synthesis or accumulation.

[3] = tested on: PPARγ (Peroxisome proliferator-activated receptor gamma); test: PPARγ adipocyte marker gene expression (qPCR)
Description: (§1) The adipocyte cell 3T3-L1 purchased from the International Center for Biological Resources (ATCC) were placed in Dulbecco's Modified Eagle's Medium (Sigma) to which 10% fetal bovine serum (Hyclone) and 1% penicillin/streptomycin (Sigma) were added, and cultured in a 5% CO2 incubator. In order to differentiate preadipocytes into adipocytes, the cells were filled in a culture plate and cultured. After 48 hours, the cells were replaced with Dulbecco's modified eagle medium (DMEM) to which 10% of fetal bovine serum (Hyclone), 0.5 mM of 3-isobutyl-1-methylxanthine (Sigma), 1 μM of dexamethasone (Sigma), 5 μg/ml of insulin (Sigma), 1% of penicillin/streptomycin (Sigma) were added and further cultured for 48 hours. During 48 hours of culture, seven types of ginsenoside reagents (GS #01-GS #06, GS #10) extracted from Ginseng seeds were treated at 10 μM each to affect adipocyte differentiation. […]
(§2) After the differentiation of adipocytes in the same manner as above, the expressions of PPARγ (Peroxisome proliferator-activated receptor gamma), aP2 (Adipocyte protein 2) and CD36 were observed as adipocyte marker genes. […] Bio-Rad's CFX96 real-time quantitative PCR (qPCR) instrument was used to quantify the expression levels of each gene. […]

[4] = tested on: human umbilical vein endothelial cells (HUVEC); test: nitric oxide (NO) production in vascular endothelial cells
Source text: Since nitric oxide is made by […] nitric oxide synthase (eNOS), in this experiment, it was confirmed whether the novel ginsenoside GS #10 of the example of the present disclosure can promote the production of nitric oxide through eNOS activity control in vascular endothelial cells. Specifically, the human umbilical vein endothelial cells (HUVEC) were purchased from the International Center for Biological Resources (ATCC) and cultured, and then the amount of nitric oxide (NO) produced by treating the novel ginsenoside GS #10 at a concentration of 1 to 10 μg/ml was measured.

[5] = tested on: HMG-CoA (3-hydroxy-3-methyl-glutaryl-coenzyme A) reductase; test: HMG-CoA reductase gene expression in HepG2 (qPCR); settings: 24 hours
[6] = tested on: CD36; test: CD36 adipocyte marker gene expression (qPCR)
Description: as §1, §2

[7] = tested on: SH-SY5Y cells; test: cytotoxicity, Cell Counting Kit (CCK)-8; settings: 0.1, 1, 5, 10, 20 and 50 μM, FIG. 17
Description: 10 μl of the CCK-8 reagent was added to the culturing SH-SY5Y cells (Dojindo, Md., USA) with reference to a 96-well plate, and left at 37° C. for 2 hours, and then the absorbance was measured at 450 nm. The cell viability was marked as a percentage (%) of the absolute optical density of each sample relative to the untreated sample. At this time, the concentration of the novel ginsenoside GS #10, which is an example of the present disclosure, contained in the medium in which the cells were cultured was 0.1, 1, 5, 10, 20, and 50 μM, respectively.

## CC1(C)C(=O)CC[C@@]2(C)C1[C@@H](O[C@H]1OC(CO)[C@H](O)C(O)C1O[C@H]1OC(CO)[C@H](O)C(O)C1O)C[C@]1(C)C2C[C@@H](O)C2C([C@]3(C)CC[C@H](C(C)(C)O)O3)CC[C@]21C (stereo partly drawn) [GS #10, (20S,24R)-6-O-β-D-glucopyranosyl(1→2)-β-D-glucopyranoside-dammar-3-one-20,24-epoxy-6a,12b,25-triol]
[1]
  expression of SREBP1a: did not inhibit the expression of SREBP1a but rather tended to increase the expression thereof
[2]; 10 μM, HepG2, FIG. 19
  ACC expression inhibitory effect: significantly higher expression inhibitory effect
[2]; 1, 10 μM, compared with Rg1, Rg3, Rb1, FIG. 24
  ACC expression inhibitory effect: far superior in lipid metabolism inhibitory effect
[3]; 1 μM and 10 μM, compared with Rg1, Rg3, Rb1, FIG. 39
  adipocyte differentiation inhibition, PPARγ gene expression: far superior in adipocyte differentiation inhibition
[3]; 10 μM, FIG. 35
  adipocyte differentiation inhibition, PPARγ gene expression: more effective in inhibiting the adipocyte differentiation
[4]; 10 μg/ml, HUVEC, FIG. 43
  NO production efficacy relative to ginsenoside Re (GS #03): ≥ 2 times
[4]; 10 μg/ml, HUVEC, compared with GS #01 to GS #06, FIG. 43
  NO production-increasing effect: significantly greater NO production-increasing effect
[4]; 10 μg/ml, compared with Rg1, Rg3, Rb1, FIG. 46
  increased production of nitric oxide (NO): far superior
[4]; 1 to 10 μg/ml, HUVEC, FIG. 42
  nitric oxide (NO) production: increase NO production in a concentration-dependent manner
[5]; 10 μM, HepG2, FIG. 28
  expression of HMG-CoA reductase: most excellent efficacy of inhibiting the expression
[5]; 1 and 10 μM, compared with Rg1, Rg3, Rb1, FIG. 31
  inhibition of cholesterol synthesis (HMG-CoA reductase expression): most effective in inhibiting cholesterol synthesis
[6]; 1 μM and 10 μM, compared with Rg1, Rg3, Rb1, FIG. 41
  adipocyte differentiation inhibition, CD36 gene expression: far superior in adipocyte differentiation inhibition
[6]; 10 μM, FIG. 37
  adipocyte differentiation inhibition, CD36 gene expression: more effective in inhibiting the adipocyte differentiation
[7]
  cytotoxicity (cell viability): did not exhibit cytotoxicity up to 50 μM
